Data reported in patent US12370167B2, “Blood-brain barrier permeability regulator and use thereof” (ZHEJIANG UNIVERSITY, priority 2019, dated 2025).

Tests used:
[1] = test system: blood-brain barrier permeability; test: Evans blue permeation into the brain after SC79; format: in vivo, BABL/c nude mice
Procedure: FIG. 10: In vivo regulation of increase in the blood-brain barrier permeability and increase in the amount of Evans blue permeated into the brain by SC79. SC79 was injected into tail veins of tumor-bearing animals at an administration dose of 5 mg/kg and 10 mg/kg, respectively. After 24 hours, an Evans blue solution was injected into tail veins at an administration dose of 5 mg/kg. After 4 hours, the intact brain of the nude mice was taken by cardiac perfusion.
FIG. 11: In vivo time-dependent regulation of increase in the blood-brain barrier permeability by SC79. SC79 was injected into tail veins of tumor-bearing animals at an administration dose of 5 mg/kg and 10 mg/kg, respectively. After 0 hour, 0.5 hour, and 24 hours, an Evans blue solution was injected into tail veins at an administration dose of 5 mg/kg. After 4 hours, the intact brain of the nude mice was taken by cardiac perfusion.
(§1) Male BABL/c nude mice (20+2 g) were used as the model animals. SC79 diluted with 0.2% injection grade Tween 80 solution was injected into tail veins at an administration dose of 5 mg/kg, 10 mg/kg. After 24 hours, an Evans blue solution was injected into tail veins at an administration dose of 5 mg/kg. After 4 hours, the intact brain of the nude mice was taken by cardiac perfusion. The distribution intensity of Evans blue in the brain tissue was qualitatively observed with a small animal live imaging instrument.
as §1, with “nude mice (20±2 g) were” for “nude mice (20+2 g) were”, “mg/kg. After 0.5 hour, and after 24 hours,” for “mg/kg. After 24 hours,”

[2] = test system: neurons; conditions: mouse model of permanent local cerebral ischemia; cited from earlier work

In the case of `CCOC(=O)C1=C(N)Oc2ccc(Cl)cc2C1C(C#N)C(=O)OCC` (stereo not shown) [SC79], the “amount of Evans blue permeated into the brain” value (“amount” for short) ([1]; SC79 5 mg/kg, 10 mg/kg tail vein, Evans blue after 24 hours, vs tumor-bearing control group) is reported as “increased”, the “amount” value ([1]; SC79 tail vein, Evans blue 0.5 hour after SC79) is reported as “increased” and the “amount” value ([1]; SC79 tail vein, Evans blue 24 hours after SC79) is reported as “the highest”. The survival of neurons [2] was “increases the survival of neurons”.
